Measurements published in patent US20130216614A1, “IMMUNOGENIC COMPOSITIONS AND METHODS FOR TREATING NUEROLOGIC DISORDERS” (Glaxosmithkline Biologicals S.A., priority 2010, published 2013).

Columns and labels:
[1] = tested on: APPSwe/PS1 mice; test: Aβ plaque loading in brain, stereological analysis; assay type: in vivo; conditions: 50 μg/mouse i.p. weekly for 12 weeks
Description: Five groups of APPSwe/PS1 mice have received one a week for a period of 12 weeks the following treatment: • Gr1: APPSwe/PS1+NaCl 0.9% n(=20), i.p. injections • Gr4: APPSwe/PS1+CRX527 (20 μg/mouse, 130 μl, n=10), i.p. injections • Gr5: APPSwe/PS1+CRX601 (20 μg/mouse, 130 μl, n=10), i.p. injections • Gr6: APPSwe/PS1+3D MPL (50 μg/mouse, 130 μl, n=10), i.p. injections • Gr8 APPSwe/PS1+AS15 • Gr9: APPSwe/PS1+AS01B ( 1/10th of human dose μg/kg, 50 μl, n=10), i.m. injections
Mice were anesthetized under isofluorane and blood was drawn via cardiac puncture before head decapitation. Brains were rapidly removed from the skulls and placed in cold phosphate buffered saline (PBS) solution. Then hemibrains were separated and olfactory bulbs and cerebellum were removed. One hemibrain was rapidly frozen in liquid nitrogen and stored at −80° C. for protein analysis. The other one was postfixed for 2-4 days in 4% paraformaldehyde (PFA), pH 9.5 at 4° C., and then placed in a PFA solution containing 10% sucrose overnight at 4° C. […]
An observer who was blind to the treatment status of the material did all quantitative histological analyses. […] Briefly, the contours of the prefrontal cortex, the hippocampus and the cortex areas were traced as virtual overlay on the […] images and areas were calculated. The area occupied by all Aβ-labeled plaques was determined. […]

[2] = Innate cytokine/chemokine profile in sera after injection; assay type: in vivo, C57BL/6 mice
Description: FIG. 17: Innate cytokines profile from sera after either LPS or 3DMPL injected mice using the intraperitoneal route at 2 hr or 6 hr post injection time point. Results are shown in relative units (RU or pg/ml) of various cytokines/chemokines in sera for PBS and LPS or 3DMPL injected mice after 2 hours or 6 hours. N=5 mice per group. […] Tukey post-hoc test used for the comparison following ANOVA-1 analysis.
FIG. 18: Innate cytokines profile from sera after either AS01B, AS03 or AS04D injected mice using the intramuscular at 2 hr or 6 hr post injection time point. Results are shown in relative units (RU or pg/ml) of various cytokines/chemokines in sera for PBS and LPS or 3D MPL injected mice after 2 hours or 6 hours. N=5 mice per group. The bars represent mean±SEM.
We measured several cytokines and chemokines in the sera of C57BL/6 mice 2 and 6 h following a single intraperitoneal injection of either MPL or LPS.
Innate cytokines profile from sera after either AS01B, AS03 or AS04D was injected into mice using the intramuscular route, samples taken at 2 hr or 6 hr post injection time point. Results are shown in relative units (RU or pg/ml) of various cytokines/chemokines in sera for PBS and LPS or MPL injected mice after 2 hours or 6 hours. N=5 mice per group. The bars represent mean±SEM.

With “3-O-desacyl-4′-monophosphoryl lipid A [3D MPL]” the “Amyloid beta plaque number” value [1] was “statistically significant reduction”, the “Aβ total plaque loading by immunofluorescence vs PBS control group” value [1] was “significant difference” and the “CCL2 level compared to the LPS group” value ([2]; 2 h after i.p. injection) was “higher”. For the same substance, the “CXCL-1 level compared to the LPS group” value ([2]; 2 h after i.p. injection) was “similar”, the “levels of TNF-α and IL-6 in sera” value ([2]; 2 h post i.p. injection) was “modest increase” and the “levels of TNF-α and IL-6 in sera” value ([2]; 6 h post i.p. injection) was “essentially abolished”. The “serum cytokine and chemokine levels compared with LPS-treated animals” value ([2]; single i.p. injection, 2 and 6 h) was “substantially lower”.
